The values below are quoted from earlier work in US12377095B2, “Use of ligustrazine nitrone derivatives in treatment and prevention of diabetic complication diseases” (QINGDAO HAILAN PHARMACEUTICALS CO., LTD., priority 2019, dated 2025).

The conditions of series [1]: rabbit, intraperitoneal injection of tetramethylpyrazine hydrochloride; cited from earlier work.
For series [2], the system named is patients with diabetic retinopathy. The conditions noted are these: electronically controlled tetramethylpyrazine ion added to puerarin injection and Zishen Jianpi Huayu Recipe; control group 67.50%; cited from earlier work.
The test system of series [3] is patients with diabetic nephropathy. The following applies: cited from earlier work.
Series [4] has as its system human renal proximal tubule cells. The following applies: cited from earlier work.
Series [5] relates to patients with type 2 diabetes with peripheral neuropathy. The conditions noted are these: cited from earlier work.
For series [6], the system named is rats with diabetic nephropathy. The following applies: rats with diabetic nephropathy induced by streptozotocin; cited from earlier work.
Setting [7] is: combined application vs conventional treatment group.

Like-named read-outs stand apart in the source and are kept apart here.

Take `Cc1nc(C)c(C)nc1C` [tetramethylpyrazine, Tetramethylpyrazine]: in series [1], the “entry into retinal tissue” value was “can enter the retinal tissue through the blood-retinal barrier”. Further, in series [2], the total effective rate was 86.84%. In series [3] (setting [7]), the “24 h total urine proteins” value is recorded as “reduce”, the “24 h urinary albumin excretion rate” value is “reduce”, the “24 h urine protein quantitation” value is listed as “reduce” and the “effect on reduction of blood urea nitrogen” value was “not significant”. For the same compound, in series [3] (setting [7]), the “effect on reduction of diastolic blood pressure” value was “not significant” and the “effect on reduction of systolic blood pressure” value is given as “not significant”. For the same compound, the “adverse reaction during the use” value in series [3] (tetramethylpyrazine injection, patients with diabetic nephropathy) is “no indication of serious adverse reaction”. In series [4], the “activity against sodium arsenite-induced damage” value was “protective activity”. Further, the “total effective rate of treatment” value in series [5] (conventional dose injection 80 mg/d) is on record as 82.93%. For the same compound, the “total effective rate of treatment” value in series [5] (injection 360-400 mg/d, intravenous drops, 12 d course) is listed as 95%. For the same compound, in series [6], the blood glucose result was “down-regulate”, the renal function result was “significantly improve” and the urine protein exclusion result is given as “down-regulate”.
